Positions count from the first letter of the chain named.
Legend:
Assay type in all cases: cell-based
A3-YFP [1] = target: T1, A3-YFP (Homo sapiens, UniProt P0DMS8); assay: [3H]-cAMP accumulation assay, A3-YFP; conditions: for Emax: read-out: Maximum response (% inhibition of 3 μM FSK), cAMP accumulation assay, A3-YFP cells, 1 h stimulation
T1 construct: cDNA encoding the full length human A3 receptor; expressed in transfected cells
T1 sequence (P0DMS8 1-318): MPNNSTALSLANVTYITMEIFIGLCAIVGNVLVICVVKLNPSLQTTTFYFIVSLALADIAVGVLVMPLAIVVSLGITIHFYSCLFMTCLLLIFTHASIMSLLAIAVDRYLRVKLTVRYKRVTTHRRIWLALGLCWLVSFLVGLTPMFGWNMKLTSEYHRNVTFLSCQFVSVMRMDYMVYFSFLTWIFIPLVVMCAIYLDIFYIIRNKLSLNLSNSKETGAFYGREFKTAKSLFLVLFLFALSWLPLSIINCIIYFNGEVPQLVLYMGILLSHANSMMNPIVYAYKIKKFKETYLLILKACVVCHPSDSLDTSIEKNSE
Description: On the day of analysis, cells were labelled with [^3H]-adenine (2 μCi·mL^−1) in a total volume of 600 μL per well for 2 h at 37°C/5% CO2 in normal growth medium. After 2 h, the [^3H]-adenine-containing medium was removed; cells washed once in serum-free medium and fresh serum-free medium, containing 10 μM rolipram, added. The required concentration of agonist was added to the appropriate well and cells incubated for 10 min at 37°C. After 10 min, 10 μM FSK was added to all wells, apart from basal wells, and cells were incubated for a further 1 h at 37°C. The assay was terminated by the addition of 50 μL concentrated HCl to each well. The levels of [^3H]-cAMP incorporated were measured by sequential Dowex and alumina chromatography and the efficiency of each column was determined by the recovery of [^14C]-cAMP as described by Donaldson et al. ([1988]).
(§1) A basal and FSK control was included in each separate concentration-response CRE-SPAP gene transcription assay and cAMP accumulation assay to allow the responses in each cell line to be expressed as an inhibition of FSK-stimulated SPAP production.

A3-YFP [2] = target: T1, A3-YFP; assay: ERK1/2 phosphorylation assay (AlphaScreen SureFire), A3-YFP; conditions: for Emax: read-out: Maximum response (% 10 μM NECA), pERK1/2 assay
Description: Normal growth medium was replaced with serum-free medium for at least 4 h before analysis. Levels of ERK1/2 phosphorylation were measured using the AlphaScreen SureFire p-ERK assay kit (PerkinElmer). […] Medium was removed from each well and replaced with 40 μL SureFire lysis buffer. After shaking for 5 min, a 1:80:20:120 v v^−1 dilution of AlphaScreen beads : lysate : activation buffer : reaction buffer in a 5.5 μL total volume was transferred to a white opaque 384-well proxiplate in diminished light. After 2 h of incubation in the dark at room temperature, the fluorescence signal was measured with an EnVision plate reader (PerkinElmer) using standard AlphaScreen settings.
as §1

A3 W243F-YFP [3] = target: T2, A3 W243F-YFP (Homo sapiens, UniProt P0DMS8, W243F); assay: Confocal imaging of receptor internalization and membrane YFP fluorescence, A3 W243F-YFP; conditions: A3 W243F-YFP cells, 10 μM agonist
T2 construct: Full length A3 W243F-YFP was excised and subcloned into a native pcDNA3.1 vector; expressed in transfected cells
T2 sequence (P0DMS8 1-318 W243F): T1 sequence (P0DMS8 1-318) with W243F
Description: Live-cell BiFC imaging was performed on A3-vYc/β-arrestin2-vYnL and A3 W243F-vYc/β-arrestin2-vYnL cells grown in Nunc Labtek 8-well plates, and images obtained using a Zeiss 710 confocal microscope (Carl Zeiss GmbH, Jena, Germany) fitted with a 63× plan-Apochromat NA1.4 Ph3 oil-immersion objective. Live-cell imaging analysis was performed on A3-YFP or A3 W243F-YFP CRE-SPAP cells and transiently expressed SNAP-A3 or SNAP-A3 W243F grown in Nunc Labtek 8-well plates, and images obtained using a Zeiss LSM5 Exciter confocal microscope (Carl Zeiss GmbH) fitted with a 63× plan-Apochromat NA1.4 DIC oil-immersion objective. For both YFP, BiFC and BG-AF488 label, a 488 nm argon laser was used to excite the fluorophore and emission was detected using a BP505-530 filter. Cells expressing the SNAP-tagged receptors were labelled with 1 μM SNAP-surface BG-AF488 (New England Biolabs) in DMEM/F12 medium for 30 min at 37°C/5% CO2. Before all imaging experiments, normal growth medium or medium containing BG-AF488 was removed and cells were washed twice in HEPES-buffered saline solution (HBSS; 25 mM HEPES, 10 mM glucose, 146 mM NaCl, 5 mM KCl, 1 mM MgSO4, 2 mM sodium pyruvate, 1.3 mM CaCl2) and fresh HBSS was added for analysis. […] Images of A3-YFP and A3 W243F-YFP cells were taken with same pinhole diameter, laser power, gain and offset to allow comparison of YFP fluorescence. To obtain fluorescence intensity values, a region of interest was drawn around the plasma membrane of 10 cells per image in Zeiss AIM 4.2 software (Carl Zeiss GmbH).

A3 W243F-YFP [4] = target: T2, A3 W243F-YFP; assay: CRE-SPAP gene transcription assay, A3 W243F-YFP; conditions: A3 W243F-YFP cells
Description: One day before analysis, normal growth medium was removed from the cells and replaced with serum-free medium (DMEM/F12 containing 2 mM L-glutamine). Where applicable, PTx (100 ng·mL^−1) was added at this stage. On the day of the assay, the medium was removed and replaced with fresh serum-free medium containing the required concentration of the agonist, and cells were incubated for 1 h at 37°C/5% CO2. After 1 h, the required concentration of forskolin (FSK) was added, and cells were incubated for a further 5 h at 37°C/5% CO2. Following the 5 h incubation, all medium was removed from the cells, 40 μL of fresh serum-free medium was added to each well and cells incubated for a further 1 h at 37°C/5% CO2. The plates were then incubated at 65°C for 30 min, to destroy any endogenous alkaline phosphatases. Plates were cooled to room temperature and 100 μL of 5 mM 4-nitrophenyl phosphate in diethanolamine-containing buffer [10% (v v^−1) diethanolamine, 280 mM NaCl, 500 μM MgCl2, pH 9.85] was added to each well; the plates were then incubated at 37°C for 25 min. The absorbance at 405 nm was measured using a Dynex MRX plate reader (Chelmsford, MA, USA).
as §1

EC50 (A3-YFP [1]; read-out: pEC50 (cAMP accumulation assay) (converted)) [nM]	EC50 (A3-YFP [2]; A3-YFP cells, 5 min stimulation, read-out: pEC50 (pERK1/2 assay) (converted)) [nM]	reduction in membrane fluorescence (A3 W243F-YFP [3])	Maximum response (% inhibition of 10 μM FSK), CRE-SPAP assay (A3 W243F-YFP [4])	maximum inhibition of SPAP production in response to 3 μM FSK (A3 W243F-YFP [4]; 5 h stimulation, 3 μM FSK)	Structure (SMILES)	Emax (A3-YFP [1]) [%]	Emax (A3-YFP [2]) [%]	internalization of the receptor seen in confocal images (A3 W243F-YFP [3])	agonist-mediated inhibition of SPAP production after PTx pre-incubation (A3 W243F-YFP [4]; PTx 100 ng·mL−1 overnight, 3 μM FSK)	SPAP production in the absence of FSK (Gs coupling) (A3 W243F-YFP [4]; no FSK, with or without PTx)	Emax (A3 W243F-YFP [4]; read-out: Maximum response (% inhibition of 10 μM FSK), CRE-SPAP assay) [%]
2.4	1.91	no significant change	No inhibition	no significant decrease	CCCCC#Cc1nc(NC)c2ncn([C@@H]3O[C@H](CO)[C@@H](O)[C@H]3O)c2n1 [HEMADO, 2-(1-hexynyl)-N-methyladenosine]	80 ± 5.1	120 ± 5.8	unable to stimulate internalization	–	–	–
–	–	–	–	–	CCNC(=O)[C@H]1O[C@@H](n2cnc3c(N)ncnc32)[C@H](O)[C@@H]1O [NECA, 5-(N-ethylcarboxamido)adenosine]	77.5 ± 6.9	100	rapid internalization	abolished	no increase in SPAP production	34.8 ± 6.7

Reference: publication PMC4128046, “Effect of a toggle switch mutation in TM6 of the human adenosine A3 receptor on Gi protein-dependent signalling and Gi-independent receptor internalization” (British Journal of Pharmacology, 2014)
